Measured values published in patent publication US7981903B2, “2-[2-{phenylamino}-1H-pyrrolo[2,3-D]pyrimidin-4-yl)amino] benzamide derivatives as IGF-1R inhibitors for the treatment of cancer” (GlaxoSmithKline LLC, priority 2007, dated 2011).

Key:
ALK = ALK (Homo sapiens, UniProt Q9UM73); assay: ALK enzyme assay (HTRF); format: biochemical; conditions: 0.25 nM ALK, 15.0 μM ATP, values given as pIC50 category
Summary of the method: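 Final compound range 0.00017 to 10 μM (twelve 1:3 dilutions). Kinase reaction with ATP and biotinylated synthetic peptide runs 120 min at 20° C, stopped with EDTA; phosphotyrosine detected by HTRF after 60 min. Inhibition referenced to DMSO (1%) and EDTA (0.1 M) controls, curve-fitted.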

Colo205 = assay: Inhibition of cell proliferation (CellTiter-Glo or InCell analyzer), Colo205; format: cell-based; conditions: Homo sapiens, COLO 205, 72 h / 3 days, values given as IC50 category
Summary of the method: In one

NCI-H929 = assay: Inhibition of cell proliferation (CellTiter-Glo or InCell analyzer), NCI-H929; format: cell-based; conditions: Homo sapiens, 72 h / 3 days, values given as IC50 category
Summary of the method: In one

[1] = target: T1, NIH-3T3 cells overexpressing human IR (Homo sapiens, UniProt P06213); assay: IR cellular autophosphorylation (DELFIA); format: cell-based; conditions: 2 h compound, insulin 3 ug/ml for 15 minutes, IC50 category
T1 construct: expressed in transfected cells; host or cells: NIH-3T3 (mouse fibroblasts)
Summary of the method: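 Receptor autophosphorylation measured by DELFIA, capturing IGF-1R or IRβ and detecting with europium anti-pTyr, reported as percent of IGF-1- or insulin-stimulated signal. Compounds (30 uM to 1.5 nM) added 2 h before ligand, then 15 min stimulation (IGF-1 30 ng/ml or insulin 3 ug/ml).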

T1 sequence (P06213 28-1382): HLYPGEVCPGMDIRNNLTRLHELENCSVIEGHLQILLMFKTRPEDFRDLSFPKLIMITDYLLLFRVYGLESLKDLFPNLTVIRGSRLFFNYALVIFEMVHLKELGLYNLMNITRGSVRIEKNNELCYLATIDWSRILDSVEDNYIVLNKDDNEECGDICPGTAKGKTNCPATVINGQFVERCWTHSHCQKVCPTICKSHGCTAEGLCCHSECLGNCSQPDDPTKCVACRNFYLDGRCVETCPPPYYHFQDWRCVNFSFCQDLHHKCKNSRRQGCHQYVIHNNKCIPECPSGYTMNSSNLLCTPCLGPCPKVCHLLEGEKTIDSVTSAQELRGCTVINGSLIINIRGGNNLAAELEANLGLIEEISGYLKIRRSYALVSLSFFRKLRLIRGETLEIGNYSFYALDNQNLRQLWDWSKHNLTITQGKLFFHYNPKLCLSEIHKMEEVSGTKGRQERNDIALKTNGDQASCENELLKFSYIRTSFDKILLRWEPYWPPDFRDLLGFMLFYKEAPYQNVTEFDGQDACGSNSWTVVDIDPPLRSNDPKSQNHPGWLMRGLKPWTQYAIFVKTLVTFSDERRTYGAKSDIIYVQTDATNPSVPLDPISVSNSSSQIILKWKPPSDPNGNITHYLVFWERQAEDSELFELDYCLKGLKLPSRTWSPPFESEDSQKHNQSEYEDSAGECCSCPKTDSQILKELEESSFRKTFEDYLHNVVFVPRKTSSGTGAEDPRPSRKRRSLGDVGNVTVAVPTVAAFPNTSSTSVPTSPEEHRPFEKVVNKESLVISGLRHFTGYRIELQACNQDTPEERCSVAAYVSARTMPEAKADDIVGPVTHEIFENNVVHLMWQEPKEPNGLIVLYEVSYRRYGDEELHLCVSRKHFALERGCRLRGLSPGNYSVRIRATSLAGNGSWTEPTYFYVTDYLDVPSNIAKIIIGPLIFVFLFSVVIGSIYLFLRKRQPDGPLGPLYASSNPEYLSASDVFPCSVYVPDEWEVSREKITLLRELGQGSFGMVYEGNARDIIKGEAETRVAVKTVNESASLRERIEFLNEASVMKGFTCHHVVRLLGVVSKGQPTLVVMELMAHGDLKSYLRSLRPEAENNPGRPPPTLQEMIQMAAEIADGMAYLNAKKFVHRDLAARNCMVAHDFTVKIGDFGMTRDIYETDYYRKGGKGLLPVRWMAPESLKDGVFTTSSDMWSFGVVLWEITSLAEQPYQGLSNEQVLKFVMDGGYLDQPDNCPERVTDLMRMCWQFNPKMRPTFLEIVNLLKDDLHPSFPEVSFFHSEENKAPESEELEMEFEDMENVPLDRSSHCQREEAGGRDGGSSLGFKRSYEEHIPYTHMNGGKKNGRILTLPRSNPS
Chain of ALK (Q9UM73 19-1620): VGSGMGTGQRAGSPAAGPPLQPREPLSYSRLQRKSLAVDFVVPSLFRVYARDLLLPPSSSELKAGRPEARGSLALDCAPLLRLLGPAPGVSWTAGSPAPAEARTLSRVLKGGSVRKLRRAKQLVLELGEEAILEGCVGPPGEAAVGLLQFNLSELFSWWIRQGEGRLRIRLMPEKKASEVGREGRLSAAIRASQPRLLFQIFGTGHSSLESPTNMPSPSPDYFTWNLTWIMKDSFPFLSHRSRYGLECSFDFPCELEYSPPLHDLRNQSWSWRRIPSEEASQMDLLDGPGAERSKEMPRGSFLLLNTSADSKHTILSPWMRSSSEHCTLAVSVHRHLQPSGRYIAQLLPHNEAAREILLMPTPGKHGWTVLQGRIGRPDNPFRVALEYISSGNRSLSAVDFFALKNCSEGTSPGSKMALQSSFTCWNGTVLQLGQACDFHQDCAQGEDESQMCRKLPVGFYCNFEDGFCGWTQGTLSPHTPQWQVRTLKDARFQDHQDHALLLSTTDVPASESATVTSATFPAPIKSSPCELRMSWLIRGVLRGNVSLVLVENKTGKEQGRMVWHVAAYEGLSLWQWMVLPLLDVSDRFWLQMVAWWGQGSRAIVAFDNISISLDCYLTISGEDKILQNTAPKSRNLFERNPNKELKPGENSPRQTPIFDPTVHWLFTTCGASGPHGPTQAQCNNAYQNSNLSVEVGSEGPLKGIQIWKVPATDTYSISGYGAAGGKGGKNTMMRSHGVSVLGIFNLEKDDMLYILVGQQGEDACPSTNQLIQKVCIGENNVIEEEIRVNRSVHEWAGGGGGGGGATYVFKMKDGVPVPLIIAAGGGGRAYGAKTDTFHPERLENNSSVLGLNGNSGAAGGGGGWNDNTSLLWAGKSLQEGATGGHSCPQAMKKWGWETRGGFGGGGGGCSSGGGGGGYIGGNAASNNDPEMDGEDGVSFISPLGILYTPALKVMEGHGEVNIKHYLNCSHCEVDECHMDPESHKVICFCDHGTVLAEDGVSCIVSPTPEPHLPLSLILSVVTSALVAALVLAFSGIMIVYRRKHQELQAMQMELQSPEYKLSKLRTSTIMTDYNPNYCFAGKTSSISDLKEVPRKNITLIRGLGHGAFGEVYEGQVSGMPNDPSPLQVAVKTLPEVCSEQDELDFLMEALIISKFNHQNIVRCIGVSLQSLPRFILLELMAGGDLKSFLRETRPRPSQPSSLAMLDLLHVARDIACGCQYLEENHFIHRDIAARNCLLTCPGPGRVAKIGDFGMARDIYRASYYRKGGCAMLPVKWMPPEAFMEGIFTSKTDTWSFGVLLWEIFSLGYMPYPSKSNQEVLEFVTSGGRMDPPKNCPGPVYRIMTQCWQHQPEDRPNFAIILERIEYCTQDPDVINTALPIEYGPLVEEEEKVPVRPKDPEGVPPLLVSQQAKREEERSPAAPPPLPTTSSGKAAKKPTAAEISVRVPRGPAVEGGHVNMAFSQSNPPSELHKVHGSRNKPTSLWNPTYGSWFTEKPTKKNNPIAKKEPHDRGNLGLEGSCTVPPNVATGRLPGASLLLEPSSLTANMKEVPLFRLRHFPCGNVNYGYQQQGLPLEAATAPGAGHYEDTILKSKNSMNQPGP

Structure (SMILES) | IC50 (ALK) | IC50 (Colo205) | IC50 (NCI-H929) | IC50 [1]
COc1cc2c(cc1Nc1nc(Nc3ccc(F)c(F)c3C(=O)NC(C)C)c3cc[nH]c3n1)N(C(=O)CN(C)C)CC2 [Example 161, 6-[(2-{[1-(N,N-dimethylglycyl)-5-(methyloxy)-2,3-dihydro-1H-indol-6-yl]amino}-1H-pyrrolo[2,3-d]pyrimidin-4-yl)amino]-2,3-difluoro-N-(1-methylethyl)benzamide] | 1.26 to 3.98 nM | > 1000 nM | 250 to 1000 nM | > 500 nM
COc1cc2c(cc1Nc1nc(Nc3cc(F)cc(F)c3C(N)=O)c3cc[nH]c3n1)NCCC2 [Example 220, 2,4-difluoro-6-[(2-{[6-(methyloxy)-1,2,3,4-tetrahydro-7-quinolinyl]amino}-1H-pyrrolo[2,3-d]pyrimidin-4-yl)amino]benzamide] | 5.01 to 200 nM | > 1000 nM | > 1000 nM | > 500 nM
CNC(=O)c1c(F)cccc1Nc1nc(Nc2cc3c(cc2OC)CCC(=O)N3)nc2[nH]ccc12 [Example 222, 2-fluoro-N-methyl-6-[(2-{[6-(methyloxy)-2-oxo-1,2,3,4-tetrahydro-7-quinolinyl]amino}-1H-pyrrolo[2,3-d]pyrimidin-4-yl)amino]benzamide] | 5.01 to 200 nM | > 1000 nM | 250 to 1000 nM | > 500 nM
COc1cc(N2CCCN(S(C)(=O)=O)CC2)ccc1Nc1nc(Nc2cccc(F)c2C(N)=O)c2cc[nH]c2n1 [Example 207, 2-fluoro-6-{[2-({2-(methyloxy)-4-[4-(methylsulfonyl)hexahydro-1H-1,4-diazepin-1-yl]phenyl}amino)-1H-pyrrolo[2,3-d]pyrimidin-4-yl]amino}benzamide] | 1.26 to 3.98 nM | 250 to 1000 nM | 250 to 1000 nM | > 500 nM
CCCN(C)CC(=O)N1CCc2cc(OC)c(Nc3nc(Nc4cccc(F)c4C(N)=O)c4cc[nH]c4n3)cc21 [Example 168, 2-fluoro-6-[(2-{[5-(methyloxy)-1-(N-methyl-N-propylglycyl)-2,3-dihydro-1H-indol-6-yl]amino}-1H-pyrrolo[2,3-d]pyrimidin-4-yl)amino]benzamide] | 1.26 to 3.98 nM | < 250 nM | < 250 nM | < 100 nM
COc1cc2c(cc1Nc1nc(Nc3cccc(F)c3C(N)=O)c3cc[nH]c3n1)CN(C(=O)CCN1CCN(C(C)C)CC1)CC2 [Example 229, 2-fluoro-6-[(2-{[2-{3-[4-(1-methylethyl)-1-piperazinyl]propanoyl}-6-(methyloxy)-1,2,3,4-tetrahydro-7-isoquinolinyl]amino}-1H-pyrrolo[2,3-d]pyrimidin-4-yl)amino]benzamide] | 5.01 to 200 nM | > 1000 nM | 250 to 1000 nM | > 500 nM
COc1cc2c(cc1Nc1nc(Nc3cccc(F)c3C(N)=O)c3cc[nH]c3n1)N(C(=O)N(C)C)CC2 [Example 146, 6-[(4-{[2-(aminocarbonyl)-3-fluorophenyl]amino}-1H-pyrrolo[2,3-d]pyrimidin-2-yl)amino]-N,N-dimethyl-5-(methyloxy)-2,3-dihydro-1H-indole-1-carboxamide] | 5.01 to 200 nM | > 1000 nM | 250 to 1000 nM | > 500 nM
CNC(=O)c1cc2ccccc2cc1Nc1nc(Nc2cc3c(cc2OC)CCN3C(=O)CN(C)C)nc2[nH]ccc12 [Example 125, 3-[(2-{[1-(N,N-dimethylglycyl)-5-(methyloxy)-2,3-dihydro-1H-indol-6-yl]amino}-1H-pyrrolo[2,3-d]pyrimidin-4-yl)amino]-N-methyl-2-naphthalenecarboxamide] | 5.01 to 200 nM | 250 to 1000 nM | < 250 nM | 100 to 500 nM
COCC(=O)N1CCc2cc(OC)c(Nc3nc(Nc4cccc(F)c4C(N)=O)c4cc[nH]c4n3)cc21 [Example 149, 2-fluoro-6-{[2-({5-(methyloxy)-1-[(methyloxy)acetyl]-2,3-dihydro-1H-indol-6-yl}amino)-1H-pyrrolo[2,3-d]pyrimidin-4-yl]amino}benzamide] | 5.01 to 200 nM | > 1000 nM | 250 to 1000 nM | 100 to 500 nM
COc1cc(N2CCN(S(C)(=O)=O)CC2)ccc1Nc1nc(Nc2cccc(F)c2C(N)=O)c2cc[nH]c2n1 [Example 204, 2-fluoro-6-{[2-({2-(methyloxy)-4-[4-(methylsulfonyl)-1-piperazinyl]phenyl}amino)-1H-pyrrolo[2,3-d]pyrimidin-4-yl]amino}benzamide] | 0.251 to 1 nM | < 250 nM | < 250 nM | > 500 nM
COc1cc2c(cc1Nc1nc(Nc3cccc(F)c3C(N)=O)c3cc[nH]c3n1)N(C(=O)CN(C)OC)CC2 [Example 144, 2-fluoro-6-[(2-{[1-[N-methyl-N-(methyloxy)glycyl]-5-(methyloxy)-2,3-dihydro-1H-indol-6-yl]amino}-1H-pyrrolo[2,3-d]pyrimidin-4-yl)amino]benzamide] | 5.01 to 200 nM | > 1000 nM | 250 to 1000 nM | > 500 nM
COc1cc2c(cc1Nc1nc(Nc3cccc(F)c3C(N)=O)c3cc[nH]c3n1)NCC2 [Example 140, 2-fluoro-6-[(2-{[5-(methyloxy)-2,3-dihydro-1H-indol-6-yl]amino}-1H-pyrrolo[2,3-d]pyrimidin-4-yl)amino]benzamide] | 5.01 to 200 nM | 250 to 1000 nM | > 1000 nM | > 500 nM
CNC(=O)c1c(F)cc(F)cc1Nc1nc(Nc2cc3c(cc2OC)CCCN3C(=O)CN2CCCC2)nc2[nH]ccc12 [Example 221, 2,4-difluoro-N-methyl-6-[(2-{[6-(methyloxy)-1-(1-pyrrolidinylacetyl)-1,2,3,4-tetrahydro-7-quinolinyl]amino}-1H-pyrrolo[2,3-d]pyrimidin-4-yl)amino]benzamide] | 1.26 to 3.98 nM | 250 to 1000 nM | < 250 nM | < 100 nM
COc1cc2c(cc1Nc1nc(Nc3cccc(F)c3C(N)=O)c3cc[nH]c3n1)N(C(=O)CCN1CCN(C(C)C)CC1)CC2 [Example 188, 2-fluoro-6-[(2-{[1-{3-[4-(1-methylethyl)-1-piperazinyl]propanoyl}-5-(methyloxy)-2,3-dihydro-1H-indol-6-yl]amino}-1H-pyrrolo[2,3-d]pyrimidin-4-yl)amino]benzamide] | 5.01 to 200 nM | 250 to 1000 nM | 250 to 1000 nM | > 500 nM
COc1cc2c(cc1Nc1nc(Nc3cccc(F)c3C(N)=O)c3cc[nH]c3n1)N(C(=O)CN(C)C)CC2 [Example 53, 2-[(2-{[1-(N,N-dimethylglycyl)-5-(methyloxy)-2,3-dihydro-1H-indol-6-yl]amino}-1H-pyrrolo[2,3-d]pyrimidin-4-yl)amino]-6-fluorobenzamide] | 0.251 to 1 nM | < 250 nM | < 250 nM | < 100 nM
COc1cc2c(cc1Nc1nc(Nc3cc(F)cc(F)c3C(N)=O)c3cc[nH]c3n1)N(C(=O)CN1CCCC1)CCC2 [Example 219, 2,4-difluoro-6-[(2-{[6-(methyloxy)-1-(1-pyrrolidinylacetyl)-1,2,3,4-tetrahydro-7-quinolinyl]amino}-1H-pyrrolo[2,3-d]pyrimidin-4-yl)amino]benzamide] | 0.251 to 1 nM | < 250 nM | < 250 nM | < 100 nM
COc1cc2c(cc1Nc1nc(Nc3cccc(F)c3C(N)=O)c3cc[nH]c3n1)N(C(=O)CN(C)C)CCC2 [Example 210, 2-[(2-{[1-(N,N-dimethylglycyl)-6-(methyloxy)-1,2,3,4-tetrahydro-7-quinolinyl]amino}-1H-pyrrolo[2,3-d]pyrimidin-4-yl)amino]-6-fluorobenzamide] | 0.251 to 1 nM | < 250 nM | < 250 nM | < 100 nM
COc1cc2c(cc1Nc1nc(Nc3cccc(F)c3C(N)=O)c3cc[nH]c3n1)N(C(=O)Cn1ccnc1)CC2 [Example 145, 2-fluoro-6-[(2-{[1-(1H-imidazol-1-ylacetyl)-5-(methyloxy)-2,3-dihydro-1H-indol-6-yl]amino}-1H-pyrrolo[2,3-d]pyrimidin-4-yl)amino]benzamide] | 5.01 to 200 nM | > 1000 nM | > 1000 nM | > 500 nM
COc1cc2c(cc1Nc1nc(Nc3cccc4c3C(=O)NC4)c3cc[nH]c3n1)N(C(=O)CN(C)C)CC2 [Example 200, 7-[(2-{[1-(N,N-dimethylglycyl)-5-(methyloxy)-2,3-dihydro-1H-indol-6-yl]amino}-1H-pyrrolo[2,3-d]pyrimidin-4-yl)amino]-2,3-dihydro-1H-isoindol-1-one] | 1.26 to 3.98 nM | < 250 nM | < 250 nM | < 100 nM
COc1cc(N2CCN(C(C)C)CC2)ccc1Nc1nc(Nc2ccccc2C(N)=O)c2cc[nH]c2n1 [Example 7, 2-[(2-{[4-[4-(1-methylethyl)-1-piperazinyl]-2-(methyloxy)phenyl]amino}-1H-pyrrolo[2,3-d]pyrimidin-4-yl)amino]benzamide] | 0.251 to 1 nM | < 250 nM | < 250 nM | 100 to 500 nM
CNC(=O)c1c(F)cccc1Nc1nc(Nc2cc3c(cc2OC)CCCN3C(=O)[C@@H]2CCCN2C)nc2[nH]ccc12 [Example 202, 2-fluoro-N-methyl-6-[(2-{[6-(methyloxy)-1-(1-methyl-L-prolyl)-1,2,3,4-tetrahydro-7-quinolinyl]amino}-1H-pyrrolo[2,3-d]pyrimidin-4-yl)amino]benzamide] | 5.01 to 200 nM | 250 to 1000 nM | < 250 nM | 100 to 500 nM
